Measured values as given in patent US20250304911A1, “CYSTEINE PROTOTROPHY” (Pfizer Inc., priority 2022, published 2025).

How the values were obtained:
GNMT cell pool = assay: Sequential batch culture of GNMT cell pool with or without BME; type: cell-based, Chinese hamster; conditions: cysteine-free CD-CHO, 50 uM BME, within one passage, FIG. 8
Experimental: (§1) GNMT cell pools and CBS+CTH cell pools that had been adapted to grown in cysteine-free and homocysteine-free conditions as described in Example 7 were cultivated in 3-day or 4-day sequential batch cultures in cysteine-free CD-CHO media with or without 50 uM BME with the aim of testing the growth and adapting the cells to BME free conditions.

CBS+CTH cell pool = assay: Sequential batch culture of CBS+CTH cell pool with or without BME; type: cell-based, Chinese hamster; conditions: cysteine-free CD-CHO, 50 uM BME, FIG. 8
Experimental: as §1

GNMT clone 9 = assay: Batch shake flask maintenance culture with oleic acid and ferroptosis inducers, GNMT clone 9; conditions: for Viability / Viable Cell Density: Clone 9
Experimental: (§2) Two GNMT clones, clone 9 and 16, were cultivated for two passages in cysteine-free CD-CHO medium with and without oleic acid. In the oleic acid supplemented conditions, first passage received 1 micromolar (uM) of oleic acid and the second passage received 10 uM of oleic acid. In the third passage, the clones were cultivated in absence of OA but growth in presence of ferroptosis inducers, iron (12 uM ferrous sulphate) and zinc (10 uM zinc sulfate) to understand impact of prior culture in OA on ferroptosis.

GNMT clone 16 = assay: Batch shake flask maintenance culture with oleic acid and ferroptosis inducers, GNMT clone 16; conditions: for Viability / Viable Cell Density: Clone 16; for Growth and viability in iron and zinc supplemented cultures compared to untreated: 12 uM ferrous sulphate, 10 uM zinc sulfate, with or without prior OA
Experimental: as §2

GNMT clone 15 = assay: pH-adjusted fedbatch culture with Fer1, OA or Vitamin K1, GNMT clone 15; type: cell-based, Chinese hamster; conditions: for Viabilities by the end of the culture, treated versus untreated: 1 uM Fer1 or 10 uM OA on days 0, 5 and 6, FIG. 11A
Experimental: (§3) Two GNMT clones (overexpressing CBS, CTH and GNMT), clone 15 and 19, were cultivated in pH-adjusted fedbatch cultures in multiple shake flasks. Cells were seeded at 0.5E6 cell/mL in cysteine-free internal basal medium and were fed with 1% cysteine-free, nutrient rich medium daily starting day 4. For the first set of shake flasks, cultures for each clone were treated with 1 uM of Fer1 or 10 uM of OA on days 0, 5 and 6, or left untreated. For the second set of shake flasks, cultures for each clone were treated with 10 uM of Vitamin K1 on days, 0, 4, 5 and 6. Viable cell densities and viabilities were measured on various days during the fedbatch culture.

[1] = system: CBS+CTH cells (CHO cell pools overexpressing CBS and CTH); assay: Growth of CBS+CTH cell pool in L-homocysteine supplemented cysteine free CD CHO medium; type: cell-based, Chinese hamster; conditions: FIG. 4
Experimental: (§4) Next, the growth of CHO cell pools overexpressing CBS and CTH (referred to as “CBS+CTH” cells) or overexpressing CBS, CTH and GNMT (referred to as “GNMT” cells) was evaluated in cysteine free CD CHO medium or L-homocysteine supplemented cysteine free CD CHO medium. […] Subsequently, as described in more detail in Example 7, the CBS+CTH and the GNMT cell pools were adapted to grow in L-homocysteine free conditions. For both the CBS+CTH and GNMT cell pools, gene expression levels of CTH, CBS, GNMT and MTR were measured before and after adaptation to L-homocysteine free conditions (Table 5).

[2] = system: GNMT cells (CHO cell pools overexpressing CBS, CTH and GNMT); assay: Growth of GNMT cell pool in L-homocysteine supplemented cysteine free CD CHO medium; type: cell-based, Chinese hamster; conditions: FIG. 4
Experimental: as §4

GNMT clone 19 = assay: pH-adjusted fedbatch culture with Fer1, OA or Vitamin K1, GNMT clone 19; type: cell-based, Chinese hamster; conditions: 10 uM Vitamin K1 on days 0, 4, 5 and 6, FIG. 11B
Experimental: as §3

[3] = +10 uM OA (prior passages), Day 0, CD CHO alone, + 12 uM FeSO4 or + 10 uM ZnSO4
[4] = +10 uM OA (prior passages), Day 3, CD CHO alone, + 12 uM FeSO4 or + 10 uM ZnSO4
[5] = +10 uM OA (prior passages), Day 4, CD CHO alone, + 12 uM FeSO4 or + 10 uM ZnSO4
[6] = No OA, Day 0, CD CHO + 12 uM FeSO4 or + 10 uM ZnSO4
[7] = No OA, Day 3, CD CHO + 12 uM FeSO4 or + 10 uM ZnSO4
[8] = No OA, Day 4, CD CHO + 12 uM FeSO4 or + 10 uM ZnSO4

OCCS [BME, beta mercaptoethanol]
Growth and viability in BME free conditions versus with BME (GNMT cell pool): comparable | Growth and viabilities between BME-free and BME containing conditions (CBS+CTH cell pool): significantly different growth and viabilities

O=S(=O)([O-])[O-].[Fe+2] [FeSO4, ferrous sulphate]
Viability (GNMT clone 9; [3]): 99.6% | Viable Cell Density (GNMT clone 9; [3]): 3.45 E5 c/mL | Viability (GNMT clone 9; [4]): 99.2% | Viable Cell Density (GNMT clone 9; [4]): 21.94 E5 c/mL | Viability (GNMT clone 9; [5]): 99.1% | Viable Cell Density (GNMT clone 9; [5]): 38.38 E5 c/mL | Viability (GNMT clone 9; [6]): 100% | Viable Cell Density (GNMT clone 9; [6]): 3.54 E5 c/mL | Viability (GNMT clone 9; [7]): 99.2% | Viable Cell Density (GNMT clone 9; [7]): 19.65 E5 c/mL | Viability (GNMT clone 9; [8]): 99.3% | Viable Cell Density (GNMT clone 9; [8]): 39.74 E5 c/mL | Viability (GNMT clone 16; [3]): 99.6% | Viable Cell Density (GNMT clone 16; [3]): 3.63 E5 c/mL | Viability (GNMT clone 16; [4]): 98.6% | Viable Cell Density (GNMT clone 16; [4]): 19.21 E5 c/mL | Viability (GNMT clone 16; [5]): 99.2% | Viable Cell Density (GNMT clone 16; [5]): 40.8 E5 c/mL | Viability (GNMT clone 16; [6]): 98.7% | Viable Cell Density (GNMT clone 16; [6]): 4.02 E5 c/mL | Viability (GNMT clone 16; [7]): 98.5% | Viable Cell Density (GNMT clone 16; [7]): 14.07 E5 c/mL | Viability (GNMT clone 16; [8]): 99.1% | Viable Cell Density (GNMT clone 16; [8]): 31.09 E5 c/mL | Growth and viability in iron and zinc supplemented cultures compared to untreated (GNMT clone 16; clone 16, third passage): lower

CCOC(=O)c1ccc(NC2CCCCC2)c(N)c1 [Fer1, ferrostatin 1]
Viabilities by the end of the culture, treated versus untreated (GNMT clone 15): slightly higher viabilities

NC(CCS)C(=O)O [L-homocysteine, 2-amino-4-sulfanylbutanoic acid]
Growth in L-homocysteine supplemented cysteine free medium [1]: exhibited growth | Growth in L-homocysteine supplemented cysteine free medium [2]: exhibited growth

CCCCCCCC/C=C\CCCCCCCC(=O)O [OA, oleic acid]
Viable Cell Density (GNMT clone 9; [3]): 3.85 E5 c/mL | Viable Cell Density (GNMT clone 9; [4]): 21.99 E5 c/mL | Viable Cell Density (GNMT clone 9; [5]): 42.9 E5 c/mL | Benefit of exposure to OA on growth and viability (GNMT clone 9; clone 9, third passage, prior passages with 1 uM then 10 uM oleic acid): not observed | Viable Cell Density (GNMT clone 16; [3]): 4.44 E5 c/mL | Viable Cell Density (GNMT clone 16; [4]): 22.52 E5 c/mL | Viable Cell Density (GNMT clone 16; [5]): 48.33 E5 c/mL | Growth and viabilities of OA exposed versus unexposed conditions (GNMT clone 16; clone 16, third passage, prior passages with 1 uM then 10 uM oleic acid): higher growth and viabilities | Viabilities by the end of the culture, treated versus untreated (GNMT clone 15): slightly higher viabilities

CC1=C(C/C=C(\C)CCC[C@H](C)CCC[C@H](C)CCCC(C)C)C(=O)c2ccccc2C1=O [Vitamin K1]
Growth and viability with Vitamin K1 supplementation (GNMT clone 19): improved growth and viability | Growth and viability with Vitamin K1 supplementation (GNMT clone 15; 10 uM Vitamin K1 on days 0, 4, 5 and 6, FIG. 11B): improved growth and viability

O=S(=O)([O-])[O-].[Zn+2] [ZnSO4, zinc sulfate]
Viability (GNMT clone 9; [3]): 98.9% | Viable Cell Density (GNMT clone 9; [3]): 3.11 E5 c/mL | Viability (GNMT clone 9; [4]): 97.7% | Viable Cell Density (GNMT clone 9; [4]): 16.78 E5 c/mL | Viability (GNMT clone 9; [5]): 96.4% | Viable Cell Density (GNMT clone 9; [5]): 30.16 E5 c/mL | Viability (GNMT clone 9; [6]): 100% | Viable Cell Density (GNMT clone 9; [6]): 3.55 E5 c/mL | Viability (GNMT clone 9; [7]): 97.9% | Viable Cell Density (GNMT clone 9; [7]): 17.26 E5 c/mL | Viability (GNMT clone 9; [8]): 96.7% | Viable Cell Density (GNMT clone 9; [8]): 32.29 E5 c/mL | Viability (GNMT clone 16; [3]): 99.6% | Viable Cell Density (GNMT clone 16; [3]): 3.84 E5 c/mL | Viability (GNMT clone 16; [4]): 96.2% | Viable Cell Density (GNMT clone 16; [4]): 13.62 E5 c/mL | Viability (GNMT clone 16; [5]): 96% | Viable Cell Density (GNMT clone 16; [5]): 32.19 E5 c/mL | Viability (GNMT clone 16; [6]): 99.2% | Viable Cell Density (GNMT clone 16; [6]): 4.31 E5 c/mL | Viability (GNMT clone 16; [7]): 94.9% | Viable Cell Density (GNMT clone 16; [7]): 12.27 E5 c/mL | Viability (GNMT clone 16; [8]): 94.1% | Viable Cell Density (GNMT clone 16; [8]): 23.99 E5 c/mL | Growth and viability in iron and zinc supplemented cultures compared to untreated (GNMT clone 16; clone 16, third passage): lower
